Measured values published in US7910622B2, “Modulation of bacterial quorum sensing with synthetic ligands” (Wisconsin Alumni Research Foundation, priority 2007, dated 2011).
Read-outs that look alike come from different tables or passages of the source.

Columns and labels:
Test in all cases: cell-based
[1] = biological target: T1, TraR (Agrobacterium tumefaciens, UniProt P33905); conditions: for A. tumefaciens-TraR Activation [%]: 10 μM ligand; for A. tumefaciens-TraR Activation [%] / A. tumefaciens-TraR Inhibition [%] / inhibition at 10 µM: A. tumefaciens WCF47 (pCF372), normalized to OOHL; for A. tumefaciens-TraR Inhibition [%]: 10 μM synthetic ligand against 100 nM OOHL; for activation at 10 µM: read-out: A. tumefaciens-TraR Activation [%]; for inhibition at 10 µM: read-out: A. tumefaciens-TraR Inhibition [%], 10 μM synthetic ligand against 100 nM OOHL
T1 construct: These strains lack their AHL synthase (I) genes, but retain their native R genes; endogenous in cells; host or cells: A. tumefaciens WCF47 (Δ-traI) with PtraI-lacZ plasmid pCF372
Procedure: A. tumefaciens reporter gene assay protocols. […] An overnight culture of A. tumefaciens WCF47 (pCF372) was diluted to an OD600 of 0.1 in fresh AB minimal medium containing 400 μg/mL octopine and 50 μg/mL streptomycin. A 200 μL-portion of the diluted culture was added to each well of the multititer plate containing AHLs. Plates were grown at 28° C. for 18-20 h in a rotary shaking incubator (200 rpm). The cultures were then assayed for β-galactosidase activity following the Miller assay method. Briefly, 200 μL aliquots of bacteria from each of the wells were added to wells of a polystyrene 96-well plate and the OD600 of each well was recorded. Next, 50 μL aliquots from each well were transferred to a solvent resistant 96-well plate containing 200 μL Z buffer, 8 μL CHCl3 and 4 μL 0.1% aq. sodium dodecylsulfate (SDS). This suspension was mixed via repetitive pipetting, after which the CHCl3 was allowed to settle. A 100-μL aliquot from each well was transferred to a fresh polystyrene 96-well plate, and 20 μL of substrate, o-nitrophenyl-β-D-galactopyranoside (ONPG, 4 μg/mL in phosphate buffer), was added at time zero. After the development of appropriate yellow color (ca. 15-35 min), the reaction was terminated by the addition of 50 μL of 1 M Na2CO3. Absorbance at 420 nm and 550 nm was measured for each well using a plate reader, and Miller units were calculated according to standard methods.
(§1) Dose response reporter gene assays. […] IC50 and EC50 values were calculated using GraphPad Prism software (v. 4.0) using a sigmoidal curve fit.
A. tumefaciens reporter gene assay protocols. […] An overnight culture of A. tumefaciens WCF47 (pCF372) was diluted 1:10 with fresh AB minimal medium containing 400 μg/mL octopine and 50 μg/mL streptomycin. A 200 μL portion of the diluted culture was added to each well of the multititer plate containing AHLs. Plates were incubated at 28° C. for 18-24 h. The cultures were then assayed for β-galactosidase activity following the Miller assay method. Briefly, 200 μL aliquots of bacteria from each of the wells were added to wells of a 96-well multititer plate, and the OD600 of each well was recorded. Next, 50 μL aliquots from each well were transferred to a solvent resistant 96-well multititer plate containing 200 μL Z buffer, 8 μL CHCl3 and 4 μL 0.1% aq. SDS. This suspension was mixed via repetitive pipetting, after which the CHCl3 was allowed to settle. A 100 μL aliquot from each well was transferred to a fresh 96-well multititer plate, and 20 μL of substrate, o-nitrophenyl-β-D-galactopyranoside (ONPG, 4 μg/mL in phosphate buffer), was added at time zero. After the development of appropriate yellow color (ca. 20-30 min), the reaction was terminated by the addition of 50 μL of 1 M Na2CO3. Absorbances at 420 nm and 550 nm were measured for each well using a plate reader, and Miller units were calculated according to standard methods.
as §1

[2] = biological target: T2, LasR (Pseudomonas aeruginosa, UniProt P25084); format: cell-based; conditions: for E. coli-LasR Inhibition [%]: 5 μM synthetic ligand against 7.5 nM OdDHL; for E. coli-LasR Inhibition [%] / inhibition at 5 µM: E. coli DH5α (pJN105L pSC11), normalized to OdDHL; for inhibition at 5 µM: read-out: E. coli-LasR Inhibition [%], 5 μM synthetic ligand against 7.5 nM OdDHL
T2 construct: expressed in transfected cells; host or cells: E. coli DH5α (pJN105L pSC11), arabinose-induced
Procedure: (§2) E. coli LasR reporter gene assay protocols. […] An overnight culture of E. coli DH5a (pJN105L pSC11) grown at 37° C. was subculture by diluting 1/10 in fresh LB medium containing 100 μg/mL ampicillin and 15 μg/mL gentamicin and shaking at 37° C. until OD600=0.3. Arabinose (4 mg/mL) was then added to induce the LasR promoter and a 200 μL-portion of this culture was added to each well of the multititer plate containing AHLs. Plates were grown at 37° C. for 2 hours in a rotary shaking incubator (200 rpm; OD600=0.45). The cultures were then assayed for activity following the identical β-galactosidase assay protocols used in the A. tumefaciens reporter gene assays.
as §1
(§3) E. coli LasR reporter gene assay protocols. […] An overnight culture of E. coli DH5α (pJN105L pSC11) was diluted 1:10 with fresh LB medium containing 100 μg/mL ampicillin and 15 μg/mL gentamicin. This sub-culture was incubated at 37° C. until OD600=0.3 (4-6 h). Arabinose (4 mg/mL) was then added to induce the LasR promoter, and a 200 μL portion of this culture was added to each well of the multititer plate containing AHLs. Plates were incubated at 37° C. until OD600=0.45 (4-6 h). The cultures were then assayed for LasR activity following the identical β-galactosidase assay protocols used in the A. tumefaciens reporter gene assays (see above).
as §1

[3] = biological target: T2, LasR; conditions: for E. coli-LasR Activation [%]: 5 μM ligand; for E. coli-LasR Activation [%] / activation at 5 µM: E. coli DH5α (pJN105L pSC11), normalized to OdDHL; for activation at 5 µM: read-out: E. coli-LasR Activation [%], 5 μM ligand
Procedure: as §2, §1, §3, §1

[4] = biological target: T3, LuxR (Aliivibrio fischeri, UniProt P35327); format: cell-based, Vibrio fischeri; conditions: for V. fischeri-LuxR Inhibition [%]: 5 μM synthetic ligand against 5 μM OHHL; for V. fischeri-LuxR Inhibition [%] / inhibition at 5 µM: V. fischeri ES114 (Δ-luxI), normalized to OHHL; for inhibition at 5 µM: read-out: V. fischeri-LuxR Inhibition [%], 5 μM synthetic ligand against 5 μM OHHL
T3 construct: a Δ-luxI derivative of V. fischeri ES114, in which the native lux operon behaves as the bioluminescent reporter; endogenous in cells; host or cells: V. fischeri ES114 (Δ-luxI)
Procedure: (§4) Luminescence assays. For agonism assays, an appropriate amount of AHL stock solution was added into a 96-well plate. An overnight culture of E. coli or V. fischeri was diluted 1:10 with appropriate media (LB plus 10 μg/mL tetracycline for E. coli; LBS for V. fischeri). A 200-μL portion of the diluted culture was added to each well of the plate. Plates were grown for 4-8 h with shaking (200 rpm; 30° C. for E. coli and RT for V. fischeri). Luminescence was measured using a multilabel plate reader and normalized to cell density. […] All assays were performed in triplicate. Graphpad Prism software was used to calculate IC50 and EC50 values.
(§5) Vibrio fischeri assay procedures. […] An overnight culture of V. fischeri ES114 (WT, Δ-luxI or Δ-luxR) was diluted 1:10 with LBS medium. A-200 μL portion of the diluted culture was added to each well of the plate. Plates were grown at RT with shaking (200 rpm) until the OD600=0.35-0.4 (4-6 h). Luminescence then was measured and normalized to cell density per well. […] All assays were performed in triplicate. IC50 and EC50 values were calculated using GraphPad Prism software using a sigmoidal curve fit.
(§6) V. fischeri reporter gene assay protocols. […] An overnight culture of V. fischeri ES114 (D-luxI) was diluted 1:10 with LBS medium. A 200-μL portion of the diluted culture was added to each well of the multititer plate. Plates were grown at RT with shaking (200 rpm) until the OD600=0.35-0.4 (4-6 h). Luminescence then was measured and normalized to cell density per well.
as §1
(§7) V. fischeri reporter gene assay protocols. […] An overnight culture of V. fischeri ES114 (Δ-luxI) was diluted 1:10 with LBS medium. A200 μL portion of the diluted culture was added to each well of the multititer plate. Plates were incubated at RT until the OD600=0.35-0.4 (4-6 h). Luminescence then was measured and normalized to cell density per well.
as §1

[5] = biological target: T3, LuxR; design: species or system Vibrio fischeri; conditions: for V. fischeri-LuxR Activation [%]: 200 μM ligand; for V. fischeri-LuxR Activation [%] / activation at 200 µM: V. fischeri ES114 (Δ-luxI), normalized to OHHL; for activation at 200 µM: read-out: V. fischeri-LuxR Activation [%], 200 μM ligand
Procedure: as §4, §5, §6, §1, §7, §1

T1 sequence (P33905 whole entry): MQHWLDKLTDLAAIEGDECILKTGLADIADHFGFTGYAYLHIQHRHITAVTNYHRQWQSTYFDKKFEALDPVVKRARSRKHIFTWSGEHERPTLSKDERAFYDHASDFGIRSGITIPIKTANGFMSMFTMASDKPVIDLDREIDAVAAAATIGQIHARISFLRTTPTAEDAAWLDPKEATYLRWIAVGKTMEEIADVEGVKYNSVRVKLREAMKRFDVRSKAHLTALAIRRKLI
T2 sequence (P25084 whole entry): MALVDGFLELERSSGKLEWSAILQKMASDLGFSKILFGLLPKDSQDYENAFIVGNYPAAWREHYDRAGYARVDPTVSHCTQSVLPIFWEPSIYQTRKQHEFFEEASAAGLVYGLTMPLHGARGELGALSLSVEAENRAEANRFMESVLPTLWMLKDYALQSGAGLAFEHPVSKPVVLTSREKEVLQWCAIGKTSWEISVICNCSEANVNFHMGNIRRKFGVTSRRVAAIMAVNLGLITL
T3 sequence (P35327 whole entry): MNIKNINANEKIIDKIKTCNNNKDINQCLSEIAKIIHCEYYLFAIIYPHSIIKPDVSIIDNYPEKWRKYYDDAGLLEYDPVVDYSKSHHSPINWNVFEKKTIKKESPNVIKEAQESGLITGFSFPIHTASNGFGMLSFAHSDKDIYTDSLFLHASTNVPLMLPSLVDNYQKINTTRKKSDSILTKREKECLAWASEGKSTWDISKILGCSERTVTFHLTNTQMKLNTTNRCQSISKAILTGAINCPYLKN

Row | Molecule | A. tumefaciens-TraR Activation [%] [1] [%] | A. tumefaciens-TraR Inhibition [%] [1] [%] | E. coli-LasR Inhibition [%] [2] [%] | E. coli-LasR Activation [%] [3] [%] | V. fischeri-LuxR Inhibition [%] [4] [%] | V. fischeri-LuxR Activation [%] [5] [%] | further results
1 | CC(C)(C)OC(=O)NCc1ccc(C(=O)N[C@H]2CCOC2=O)cc1 [A21] | 0 | 13 | 12 | 0 | 35 | 1 | –
2 | CCCCCCCCCCCC(=O)N[C@H]1CCOC1=O [A5, C12 AHL] | – | – | – | – | – | – | activation at 10 µM [1]: 1%; inhibition at 10 µM [1]: 22%; inhibition at 5 µM [2]: -10%; activation at 5 µM [3]: ~85%; EC50 ([3]; read-out: LasR EC50): 40 nM; inhibition at 5 µM [4]: 73%; activation at 200 µM [5]: 2%
3 | 4-methyl PHL [C19] | – | – | – | – | – | – | Activation (%) ([1]; A. tumefaciens-TraR, Library C primary agonism screen): 3%; Inhibition (%) ([1]; A. tumefaciens-TraR, Library C primary antagonism screen): 21%; Inhibition (%) ([2]; E. coli-LasR, Library C primary antagonism screen): 11%; Activation (%) ([3]; E. coli-LasR, Library C primary agonism screen): 0%; Inhibition (%) ([4]; V. fischeri-LuxR, Library C primary antagonism screen): 58%; Activation (%) ([5]; V. fischeri-LuxR, Library C primary agonism screen): 1%
4 | D-enantiomer of OOHL [A24] | 4 | 6 | 16 | 0 | 7 | 2 | –
5 | CCCCCCC(=O)NC1CCOC1=O (stereo not shown) [compound 4] | – | – | – | – | – | – | IC50 [1]: 690 nM; activation at 10 µM [1]: 4%; inhibition at 10 µM [1]: ~90%; inhibition at 5 µM [2]: ~25%; activation at 5 µM [3]: 0%; IC50 ([4]; LuxR IC50, determined against 5 μM OHHL): 1360 nM; inhibition at 5 µM [4]: ~76%; activation at 200 µM [5]: ~25%
6 | 4-hydroxy PHL [B27] | 0 | 3 | 7 | 0 | 12 | 2 | –
7 | CC(=O)c1ccc(OCC(=O)N[C@H]2CCOC2=O)cc1C [D17] | 1 | 92 | 26 | 0 | 50 | 2 | IC50 ([1]; determined against 100 nM OOHL, read-out: TraR IC50): 1400 nM
8 | COc1ccc(CC(=O)N[C@H]2CCOC2=O)cc1 [B28] | 0 | 26 | 16 | 0 | 57 | 3 | –
9 | CCCCCCCCCCCS(=O)(=O)N[C@H]1CCOC1=O [A16] | 0 | 29 | 21 | 0 | 74 | 1 | –
10 | 2-aminophenol analog of OdDHL [compound 7, reference compound] | 0 | 9 | 4 | 18 | 3 | 1 | –
11 | O=C(Cc1c(F)c(F)c(F)c(F)c1F)N[C@H]1CCOC1=O [B19, pentafluoroaromatic PHL] | 0 | 2 | 19 | 2 | 40 | 2 | –
